For data set [1], the target named is farnesyl protein transferase (FPT), H-ras (Homo sapiens, UniProt P49354+P49356). Nature of the data set: FPT IC50 (H-ras), inhibition of farnesyl protein transferase, in vitro enzyme assay. In kind it is biochemical. How it is done: (§1) FPT IC50 (inhibition of farnesyl protein transferase, in vitro enzyme assay) and COS Cell IC50 (Cell-Based Assay) were determined following the assay procedures described in WO 95/10516, published Apr. 20, 1995. GGPT IC50 (inhibition of geranylgeranyl protein transferase, in vitro enzyme assay), Cell Mat Assay, and anti-tumor activity (in vivo anti-tumor studies) could be determined by the assay procedures described in WO 95/10516. The disclosure of WO 95/10516 is incorporated herein by reference thereto.

For the next data set, the system named is Human tumor cells. Put plainly: Soft Agar Assay (anchorage-independent growth). In kind it is cell-based. To be noted: Table 5, read-out: Soft Agar IC50. How it is done: Anchorage-independent growth is a characteristic of tumorgenic cell lines. Human tumor cells are suspended in growth medium containing 0.3% agarose and an indicated concentration of a farnesyl transferase inhibitor. The solution is overlayed onto growth medium solidified with 0.6% agarose containing the same concentration of farnesyl transferase inhibitor as the top layer. After the top layer is solidified, plates are incubated for 10-16 days at 37° C. under 5% CO2 to allow colony outgrowth. After incubation, the colonies are stained by overlaying the agar with a solution of MTT (3-[4,5-dimethyl-thiazol-2-yl]-2,5-diphenyltetrazolium bromide, Thiazolyl blue) (1 mg/mL in PBS). Colonies can be counted and the IC50's can be determined.

The target in data set [2] is farnesyl protein transferase (FPT), K-ras (Homo sapiens, UniProt P49354+P49356). Nature of the data set: FPT IC50 (K-ras), inhibition of farnesyl protein transferase, in vitro enzyme assay. Type of data set: biochemical. How it is done: as §1
Another data set has as its system COS Cell. Put plainly: COS Cell IC50 (Cell-Based Assay). As to conditions: COS. How it is done:
as §1

The mark [3] stands for this setting: Table 3, H-ras, read-out: FPT IC50 (nM) (H-ras).
Setting [4] is: Table 3, read-out: COS Cell IC50.
Where [5] appears, read: H-ras, read-out: FPT IC50 (H-ras).
The mark [6] stands for this setting: Table 5, read-out: Cos Cell IC50.

SMILES strings stand for the structures. Like-named read-outs stand apart in the source and are kept apart here. Some results are limits rather than exact numbers.

In general, IC50 refers to the midpoint of a concentration-inhibition curve. The melting point is the temperature of the solid-liquid transition. In turn, `CN(C)CCCC(=O)N1CCC(CC(=O)N2CCC(C3c4ncc(Br)cc4CCc4cc(Cl)cc(Br)c43)CC2)CC1` (single isomer, unassigned; (+)) [Example 19] came in with a melting point of 69 to 71 °C. Further, in data set [1] (setting [3]), the IC50 worked out at 35 nM.

In the case of `CN(C)CCC(=O)N1CCC(CC(=O)N2CCC(C3c4ncc(Br)cc4CCc4cc(Cl)cc(Br)c43)CC2)CC1` (single isomer, unassigned; (+)) [Example 20], the melting point was 82 to 84 °C. Further, the IC50 in data set [1] (setting [3]) was determined as 5.8 nM. Further, the IC50 in the data set on Human tumor cells (Homo sapiens) came to 190 nM. This compound also returned a 50% inhibitory concentration (IC50) in data set [2] of 19.8 nM. In addition, the 50% inhibitory concentration (IC50) in the data set with COS Cell (setting [4]) is 10 nM.

Regarding `CN(C)CC(=O)N1CCC(CC(=O)N2CCC(C3c4ncc(Br)cc4CCc4cc(Cl)cc(Br)c43)CC2)CC1` (single isomer, unassigned; (+)) [Example 21], the half-inhibitory concentration (IC50) in data set [1] (setting [3]) came out at 2.5 nM; with Human tumor cells (Homo sapiens), 160 nM; with Human tumor cells (listed as 12.1), 90 nM; in data set [2] it was 19.4 nM; in the data set on COS Cell (setting [4]), 10 nM.

`O=C(CCN1CCCCC1)N1CCC(CC(=O)N2CCC(C3c4ncc(Br)cc4CCc4cc(Cl)cc(Br)c43)CC2)CC1` (single isomer, unassigned; (+)) [Example 22] showed a melting point of 127 to 128 °C. The half-inhibitory concentration (IC50) in data set [1] (setting [3]) was under 2.6 nM. Further, the concentration for half-maximal inhibition (IC50) in the data set with COS Cell (setting [4]) was found to be 43 nM.

`COC(=O)CCCC(=O)N1CCC(CC(=O)N2CCC(C3c4ncc(Br)cc4CCc4cc(Cl)cc(Br)c43)CC2)CC1` (single isomer, unassigned; (+)) [Example 24] had a melting point of 101 to 102 °C. Also, the IC50 in data set [1] (setting [3]) was 4.8 nM. For the same compound, in the data set with COS Cell (setting [4]), the 50% inhibitory concentration (IC50) was 10 nM.

On to `COC(=O)CCC(=O)N1CCC(CC(=O)N2CCC(C3c4ncc(Br)cc4CCc4cc(Cl)cc(Br)c43)CC2)CC1` (single isomer, unassigned; (+)) [Example 25], for which the melting point lay in the range of 114 to 115 °C. For the same compound, in data set [1] (setting [3]), the IC50 was determined as 5.1 nM. The IC50 with Human tumor cells (Homo sapiens) was found to be 250 nM. Also, the IC50 in the data set with COS Cell (setting [4]) came out at 39 nM.

In turn, `CCOC(=O)CC(=O)N1CCC(CC(=O)N2CCC(C3c4ncc(Br)cc4CCc4cc(Cl)cc(Br)c43)CC2)CC1` (single isomer, unassigned; (+)) [Example 26] had a melting point of 77 to 78 °C. Further, in data set [1] (setting [3]), the IC50 was under 2 nM. The IC50 in the data set with COS Cell (setting [4]) turned out to be 125 nM.

Turning to `CC(C)(C)OC(=O)NCC(=O)N1CCC(CC(=O)N2CCC([C@H]3c4ncc(Br)cc4CCc4cc(Cl)cc(Br)c43)CC2)CC1` [Example 1], the IC50 was 12.3 nM in data set [1] (setting [3]) and 43.2 nM in data set [2].

Consider `C[C@H](NC(=O)OC(C)(C)C)C(=O)N1CCC(CC(=O)N2CCC([C@H]3c4ncc(Br)cc4CCc4cc(Cl)cc(Br)c43)CC2)CC1` [Example 3], for which the half-maximal inhibitory concentration (IC50) in data set [1] (setting [3]) came to 6.3 nM; in data set [2] it was 30 nM.

`C[C@H](N)C(=O)N1CCC(CC(=O)N2CCC([C@H]3c4ncc(Br)cc4CCc4cc(Cl)cc(Br)c43)CC2)CC1` [Example 4]: the IC50 in data set [1] (setting [5]) worked out at 5.2 nM; in data set [2], 23.8 nM; in the data set with COS Cell (setting [4]), 140 nM; with COS Cell (setting [6]), 140 nM.

Turning to `C[C@@H](NC(=O)OC(C)(C)C)C(=O)N1CCC(CC(=O)N2CCC([C@H]3c4ncc(Br)cc4CCc4cc(Cl)cc(Br)c43)CC2)CC1` [Example 5], the IC50 amounted to 8.4 nM in data set [1] (setting [3]) and 22 nM in data set [2].

Regarding `C[C@@H](N)C(=O)N1CCC(CC(=O)N2CCC([C@H]3c4ncc(Br)cc4CCc4cc(Cl)cc(Br)c43)CC2)CC1` [Example 6], the IC50 in data set [1] (setting [5]) came to 8.1 nM; in the data set on Human tumor cells (Homo sapiens), 200 nM; in data set [2], 31 nM; in the data set on COS Cell (setting [4]), 39 nM; in the data set with COS Cell (setting [6]) it was 39 nM.

`CC(C)(C)OC(=O)N[C@@H](Cc1c[nH]cn1)C(=O)N1CCC(CC(=O)N2CCC([C@H]3c4ncc(Br)cc4CCc4cc(Cl)cc(Br)c43)CC2)CC1` [Example 8]: the IC50 in data set [1] (setting [3]) was 7.4 nM; in data set [2] it was 41 nM; in the data set with COS Cell (setting [4]), 125 nM; in the data set on COS Cell (setting [6]), 125 nM.

On to `CC(C)=NOCC(=O)N1CCC(CC(=O)N2CCC([C@H]3c4ncc(Br)cc4CCc4cc(Cl)cc(Br)c43)CC2)CC1` [Example 9.0-B], for which, in data set [2], the midpoint of inhibition, the IC50, lay at 41 nM.

Consider `CC(C)(C)OC(=O)N1CCC[C@H]1C(=O)N1CCC(CC(=O)N2CCC([C@H]3c4ncc(Br)cc4CCc4cc(Cl)cc(Br)c43)CC2)CC1` [Example 9], for which the values for the IC50 (in data set [1] (setting [3]); in data set [2]; in the data set with COS Cell (setting [4])) were 11.6 nM, 34.8 nM and 700 nM, respectively.

In turn, `Cc1nccn1CC(=O)N1CCC(CC(=O)N2CCC([C@H]3c4ncc(Br)cc4CCc4cc(Cl)cc(Br)c43)CC2)CC1` [Example 10.0-B] showed a half-maximal inhibitory concentration (IC50) in data set [2] of 15.8 nM.

Consider `N[C@@H](Cc1ccccc1)C(=O)N1CCC(CC(=O)N2CCC([C@H]3c4ncc(Br)cc4CCc4cc(Cl)cc(Br)c43)CC2)CC1` [Example 10], for which the IC50 in data set [1] (setting [3]) was 8.3 nM; in data set [2] it was 71.2 nM; with COS Cell (setting [4]), 300 nM.

`Cc1cn(CC(=O)N2CCC(CC(=O)N3CCC([C@H]4c5ncc(Br)cc5CCc5cc(Cl)cc(Br)c54)CC3)CC2)cn1` [Example 11.0-B] showed a 50% inhibitory concentration (IC50) in data set [2] of 12.6 nM.

With `N[C@@H](Cc1c[nH]cn1)C(=O)N1CCC(CC(=O)N2CCC([C@H]3c4ncc(Br)cc4CCc4cc(Cl)cc(Br)c43)CC2)CC1` [Example 11], the concentration for half-maximal inhibition (IC50) stood at 15 nM in data set [1] (setting [3]) and 49 nM in data set [2].

In data set [2], `O=C(CC1CCN(C(=O)Cn2cnc3ccccc32)CC1)N1CCC([C@H]2c3ncc(Br)cc3CCc3cc(Cl)cc(Br)c32)CC1` [Example 12.0-B] showed an IC50 of 26.7 nM.

In the case of `O=C(CC1CCN(C(=O)[C@@H]2CCCN2)CC1)N1CCC([C@H]2c3ncc(Br)cc3CCc3cc(Cl)cc(Br)c32)CC1` [Example 12], the half-inhibitory concentration (IC50) in data set [1] (setting [3]) worked out at 4.4 nM; in the data set on Human tumor cells (Homo sapiens), 250 nM; in data set [2], 35 nM; in the data set with COS Cell (setting [4]), 55 nM.

Take `O=C(CC1CCN(C(=O)Cn2cnc3cccnc32)CC1)N1CCC([C@H]2c3ncc(Br)cc3CCc3cc(Cl)cc(Br)c32)CC1` [Example 13.0-B]: the IC50 in data set [2] was 19.7 nM.

In the case of `CCOC(=O)CC(=O)N1CCC(CC(=O)N2CCC([C@H]3c4ncc(Br)cc4CCc4cc(Cl)cc(Br)c43)CC2)CC1` [Example 30], the melting point lay in the range of 77.2 to 78.1 °C. Besides, in data set [1] (Table 4, read-out: FPT IC50), the half-inhibitory concentration (IC50) was determined as 2.8 nM.

The record behind these values is patent US6387905B2, “Compounds useful for inhibition of farnesyl protein transferase” (Schering Corporation, priority 1996, dated 2002).
